Earlier results as cited in patent US8545863B2, “Insecticides for agricultural and horticultural crops” (Globachem, priority 2009, dated 2013).

Test system: apple scab (V. inequalis)

SMILES	concentration preventing germination of spores and killing the spore sacks (asci) (apple scab (V. inequalis)) [g/L]	decreasing fruit and leaf scab (apple scab)
[Ca+2].[OH-].[OH-] [calcium hydroxide]	4.3	–
O=C([O-])O.[K+] [Potassium bicarbonate, potassium bicarbonate]	–	effective
